Laboratory results taken from patent publication US20150105252A1, “SUBSTITUTED PYRAZOLES AS HERBICIDES” (E I DU PONT DE NEMOURS AND COMPANY, priority 2013, published 2015).

Assays:
[1] = test system: foxtail, giant; assay: Test A preemergence; format: in vivo, Setaria faberii; details: for Foxtail, Giant plant response rating (0 to 100 scale): visual injury approx. 10 days after treatment
In short: (§1)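 Growth medium: loam soil blended with sand. Preemergence treatment used a directed soil spray right after planting; postemergence treatment targeted seedlings at one to two leaves (2–10 cm height). Response was judged by eye relative to untreated plants about 10 days later on a 0–100 control scale.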

[2] = test system: corn; assay: Test A preemergence; format: in vivo, Zea mays; details: for Corn plant response rating (0 to 100 scale): visual injury approx. 10 days after treatment
In short: as §1

[3] = test system: barnyardgrass; assay: Test A postemergence; format: in vivo, Echinochloa crus-galli
In short: as §1

[4] = test system: crabgrass, large; assay: Test A postemergence; format: in vivo, Digitaria sanguinalis
In short: as §1

[5] = test system: foxtail, giant; assay: Test A postemergence; format: in vivo, Setaria faberii
In short: as §1

[6] = test system: morningglory; assay: Test A postemergence; format: in vivo, Ipomoea spp.
In short: as §1

[7] = test system: rice; assay: Test B flood; format: in vivo, Oryza sativa; details: 250 g ai/ha, visual rating on 0 to 100 scale (0 no effect, 100 complete control), 13 to 15 days
In short: (§2)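 Each compound is applied to the floodwater of pots holding 2-leaf seedlings, water standing 3 cm over the soil throughout. Plants stay in a greenhouse 13 to 15 days before visual scoring against controls from 0 (no effect) to 100 (complete control).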

[8] = test system: barnyardgrass; assay: Test B flood; format: in vivo, Echinochloa crus-galli; details: 250 g ai/ha, visual rating on 0 to 100 scale (0 no effect, 100 complete control), 13 to 15 days
In short: as §2

[9] = test system: pigweed; assay: Test C preemergence; format: in vivo, Amaranthus retroflexus
In short: (§3)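 Visual rating, 0–100 scale (0 no effect, 100 complete control), vs untreated controls after 13–15 d greenhouse. Pre: seeds in loam/sand, treated at sowing. Post: plants in peat-based mix, 1- to 4-leaf (2–18 cm). Solvent + surfactant formulation, non-phytotoxic.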

[10] = test system: barnyardgrass; assay: Test C preemergence; format: in vivo, Echinochloa crus-galli
Text: Seeds of plant species selected from blackgrass (Alopecurus myosuroides), ryegrass, Italian (Italian ryegrass, Lolium multiflorum), wheat (winter wheat, Triticum aestivum), galium (catchweed bedstraw, Galium aparine), corn (Zea mays), crabgrass, large (large crabgrass, Digitaria sanguinalis), foxtail, giant (giant foxtail, Setaria faberii), johnsongrass (Sorghum halepense), lambsquarters (Chenopodium album), morningglory (Ipomoea coccinea), nutsedge, yellow (yellow nutsedge, Cyperus esculentus), pigweed (redroot pigweed, Amaranthus retroflexus), ragweed (common ragweed, Ambrosia elation), soybean (Glycine max), barnyardgrass (Echinochloa crus-galli), oilseed rape (Brassica napus), waterhemp (common waterhemp, Amaranthus rudis), oat, wild (wild oat, Avena fatua), kochia (Kochia scoparia), Surinam grass (Brachiaria decumbens), foxtail, green (green foxtail, Setaria viridis), goosegrass (Eleusine indica), bromegrass, downy (downy bromegrass, Bromus tectorum), nightshade (eastern black nightshade, Solanum ptycanthum), cocklebur (common cocklebur, Xanthium strumarium), cupgrass, woolly (woolly cupgrass, Eriochloa villosa), bermudagrass (Cynodon dactylon), sunflower, (common oilseed sunflower, Helianthus annuus), Russian thistle (Salsola kali), and velvetleaf (Abutilon theophrasti) were planted into a blend of loam soil and sand and treated preemergence with test chemicals formulated in a non-phytotoxic solvent mixture which included a surfactant.
At the same time, plants selected from these crop and weed species and also chickweed (common chickweed, Stellaria media), canarygrass (littleseed canarygrass, Phalaris minor), and deadnettle (henbit deadnettle, Lamium amplexicaule), were planted in pots containing Redi-Earth® planting medium (Scotts Company, 14111 Scottslawn Road, Marysville, Ohio 43041) comprising spaghnum peat moss, vermiculite, wetting agent and starter nutrients and treated with postemergence applications of test chemicals formulated in the same manner. Plants ranged in height from 2 to 18 cm (1- to 4-leaf stage) for postemergence treatments. Treated plants and controls were maintained in a greenhouse for 13 to 15 days, after which time all species were compared to controls and visually evaluated. Plant response ratings, summarized in Table C, are based on a scale of 0 to 100 where 0 is no effect and 100 is complete control. A dash (-) response means no test result.

[11] = test system: galium; assay: Test C postemergence; format: in vivo, Galium aparine
In short: as §3

[12] = test system: crabgrass, large; assay: Test C postemergence; format: in vivo, Digitaria sanguinalis
In short: as §3

[13] = test system: nutsedge, yellow; assay: Test C postemergence; format: in vivo, Cyperus esculentus
In short: as §3

[14] = test system: morningglory; assay: Test C preemergence; format: in vivo, Ipomoea coccinea
In short: as §3

[15] = Preemergence, 500 g ai/ha, 0 to 100 scale, 0 no effect, 100 complete control
[16] = preemergence, 125 g ai/ha, visual injury, 0 to 100 scale, approx. 10 days
[17] = Postemergence, 125 g ai/ha, 0 to 100 scale, 0 no effect, 100 complete control
[18] = Postemergence, 500 g ai/ha, visual rating after approx. 10 days, 0 to 100 scale (0 no effect, 100 complete control)
[19] = postemergence, 125 g ai/ha, about 10 days, visual rating on 0 to 100 scale (0 no effect, 100 complete control)
[20] = Preemergence, 16 g ai/ha, scale 0 to 100
[21] = preemergence, 31 g ai/ha, scale 0 to 100 (0 no effect, 100 complete control), 13 to 15 days
[22] = preemergence, 62 g ai/ha, 13 to 15 days, scale 0 to 100, 0 = no effect, 100 = complete control
[23] = preemergence, 125 g ai/ha, scale 0 to 100, 0 is no effect, 100 is complete control
[24] = Postemergence, 31 g ai/ha, visually evaluated after 13 to 15 days
[25] = postemergence, 62 g ai/ha, scale 0 to 100
[26] = postemergence, 125 g ai/ha, scale 0 to 100, 0 no effect, 100 complete control
[27] = preemergence, 500 g ai/ha, visual injury after approx. 10 days, 0 to 100 scale (0 no effect, 100 complete control)
[28] = Postemergence, 500 g ai/ha, 0 to 100 scale (0 no effect, 100 complete control)
[29] = preemergence, 31 g ai/ha, visual rating, scale 0 to 100 (0 no effect, 100 complete control), 13 to 15 days
[30] = preemergence, 62 g ai/ha, scale 0 to 100 (0 no effect, 100 complete control), 13 to 15 days
[31] = preemergence, 125 g ai/ha, 13 to 15 days, scale 0 to 100, 0 = no effect, 100 = complete control
[32] = preemergence, 250 g ai/ha, scale 0 to 100, 0 is no effect, 100 is complete control

## CCONC(=O)c1cc(CC)n(Cc2ccnc(C(F)(F)F)c2)n1 [Compound 77]
[1]; [15]
  Foxtail, Giant plant response rating: 100
[1]; [16]
  Foxtail, Giant plant response rating: 100
[2]; [15]
  Corn plant response rating: 30
[2]; [16]
  Corn plant response rating: 10
[3]; [17]
  Barnyardgrass plant response rating: 50
[3]; [18]
  Barnyardgrass plant response rating: 100
[4]; [18]
  Crabgrass, Large plant response rating: 100
[4]; [19]
  Crabgrass, Large plant response rating: 90
[5]; [18]
  Foxtail, Giant plant response rating: 100
[5]; [19]
  Foxtail, Giant plant response rating: 90
[6]; [18]
  Morningglory plant response rating: 90
[6]; [19]
  Morningglory plant response rating: 100
[7]
  Plant response rating, Rice: 20
[8]
  Plant response rating, Barnyardgrass: 0
[9]; [20]
  Plant response rating, Pigweed: 70
[9]; [21]
  Pigweed plant response rating: 100
[9]; [22]
  Plant response rating, Pigweed: 100
[9]; [23]
  Pigweed plant response rating: 100
[10]; [20]
  Plant response rating, Barnyardgrass: 10
[10]; [21]
  Barnyardgrass plant response rating: 20
[10]; [22]
  Plant response rating, Barnyardgrass: 75
[10]; [23]
  Barnyardgrass plant response rating: 100
[11]; Postemergence, 16 g ai/ha
  Plant response rating (scale of 0 to 100), Galium: 5
[11]; [24]
  Plant response rating (scale of 0 to 100 where 0 is no effect and 100 is complete control), Galium: 5
[11]; [25]
  Galium plant response rating: 15
[11]; [26]
  Plant response rating, Galium: 20
[12]; Postemergence, 16 g ai/ha
  Plant response rating (scale of 0 to 100), Crabgrass, Large: 5
[12]; [24]
  Plant response rating (scale of 0 to 100 where 0 is no effect and 100 is complete control), Crabgrass, Large: 10
[12]; [25]
  Crabgrass, Large plant response rating: 10
[12]; [26]
  Plant response rating, Crabgrass, Large: 20
[13]; Postemergence, 16 g ai/ha
  Plant response rating (scale of 0 to 100), Nutsedge, Yellow: 0
[13]; [24]
  Plant response rating (scale of 0 to 100 where 0 is no effect and 100 is complete control), Nutsedge, Yellow: 5
[13]; [25]
  Nutsedge, Yellow plant response rating: 5
[13]; [26]
  Plant response rating, Nutsedge, Yellow: 5

## CCNC(=O)c1cc(CCF)n(Cc2ccnc(C(F)(F)F)c2)n1 [Compound 178]
[1]; preemergence, 125 g ai/ha
  Foxtail, Giant plant response rating (0 to 100 scale): 90
[1]; [27]
  Foxtail, Giant plant response rating: 100
[2]; preemergence, 125 g ai/ha
  Corn plant response rating (0 to 100 scale): 0
[2]; [27]
  Corn plant response rating: 50
[3]; [28]
  Barnyardgrass plant response rating: 80
[3]; [19]
  Barnyardgrass plant response rating: 70
[4]; [28]
  Crabgrass, Large plant response rating: 90
[4]; [19]
  Crabgrass, Large plant response rating: 80
[5]; [28]
  Foxtail, Giant plant response rating: 90
[5]; [19]
  Foxtail, Giant plant response rating: 70
[6]; [28]
  Morningglory plant response rating: 100
[6]; [19]
  Morningglory plant response rating: 70
[7]
  Plant response rating, Rice: 0
[8]
  Plant response rating, Barnyardgrass: 20
[14]; [20]
  Plant response rating, Morningglory: 15
[14]; [29]
  Morningglory plant response rating: 35
[14]; [30]
  Morningglory plant response rating: 95
[14]; [31]
  Plant response rating, Morningglory: 100
[9]; [20]
  Plant response rating, Pigweed: 45
[9]; [29]
  Pigweed plant response rating: 100
[9]; [30]
  Pigweed plant response rating: 100
[9]; [31]
  Plant response rating, Pigweed: 100
[10]; [20]
  Plant response rating, Barnyardgrass: 0
[10]; [29]
  Barnyardgrass plant response rating: 10
[10]; [30]
  Barnyardgrass plant response rating: 60
[10]; [31]
  Plant response rating, Barnyardgrass: 100

## CCCc1cc(C(=O)NOC(C)C)nn1Cc1cc(C(F)(F)F)nn1C [Compound 203]
[1]; preemergence, 125 g ai/ha
  Foxtail, Giant plant response rating (0 to 100 scale): 80
[1]; [27]
  Foxtail, Giant plant response rating: 100
[2]; preemergence, 125 g ai/ha
  Corn plant response rating (0 to 100 scale): 20
[2]; [27]
  Corn plant response rating: 80
[3]; [28]
  Barnyardgrass plant response rating: 80
[3]; [19]
  Barnyardgrass plant response rating: 40
[4]; [28]
  Crabgrass, Large plant response rating: 90
[4]; [19]
  Crabgrass, Large plant response rating: 70
[5]; [28]
  Foxtail, Giant plant response rating: 90
[5]; [19]
  Foxtail, Giant plant response rating: 80
[6]; [17]
  Morningglory plant response rating: 50
[6]; [28]
  Morningglory plant response rating: 90
[7]
  Plant response rating, Rice: 0
[8]
  Plant response rating, Barnyardgrass: 25
[14]; [29]
  Morningglory plant response rating: 30
[14]; [30]
  Morningglory plant response rating: 95
[14]; [31]
  Plant response rating, Morningglory: 85
[14]; [32]
  Morningglory plant response rating: 100
[9]; [29]
  Pigweed plant response rating: 100
[9]; [30]
  Pigweed plant response rating: 100
[9]; [31]
  Plant response rating, Pigweed: 100
[9]; [32]
  Pigweed plant response rating: 100
[10]; [29]
  Barnyardgrass plant response rating: 35
[10]; [30]
  Barnyardgrass plant response rating: 98
[10]; [31]
  Plant response rating, Barnyardgrass: 100
[10]; [32]
  Barnyardgrass plant response rating: 100
